{"source": "paper PMC10844371", "about": "(Diabetologia, 2023)", "key": {"[1]": {"test_system": "isolated mouse pancreatic islets", "assay": "Insulin secretion in isolated mouse islets (RIA)", "format": "cell-based", "description": "(§1) Mouse islets were used acutely, except for studies with PTX, wherein islets were treated overnight with the toxin. Human islets were maintained in culture for up to 48 h in RPMI medium containing 10% (vol./vol.) FCS, 1% (vol./vol.) penicillin/streptomycin and 5 mmol/l glucose. Experiments were conducted as previously described. Islets were incubated in 0.3 ml EC1 or EC2 media (ESM Table 2) supplemented with glucose and other reagents as indicated.\n(§2) Insulin and somatostatin were determined by RIA (Millipore and Diasource ImmunoAssays, respectively) as described previously. In these experiments, rates of release are expressed as % of contents unless otherwise indicated."}, "[2]": {"test_system": "PKA activity in alpha cells", "assay": "PKA activity measurements (AKAR3) in alpha cells in intact islets", "format": "cell-based, mouse", "description": "PKA activity was measured using AKAR3 as previously described. The cells were continuously superfused at a rate of 60 μl/min with EC4 (ESM Table 2)."}, "[3]": {"test_system": "human pancreatic islets", "assay": "Glucagon secretion in human islets (ELISA)", "format": "cell-based", "description": "Human pancreatic islets were isolated (with ethical approval and clinical consent) as previously described. Islets from the pancreases of 18 healthy donors and five donors with type 2 diabetes were used (see electronic supplementary material [ESM] Table 1; ESM Human islets checklist).\nas §1, with “indicated. Glucagon was determined by ELISA (Mercodia).” for “indicated.”\nAll data are reported, unless otherwise stated, as mean values ± SEM for the indicated number of experiments using islets from multiple mice. For hormone release studies, islets were isolated and pooled from 4–16 mice. These islets were then subdivided into groups of 12–20 size-matched islets. Each unique set of islets counted as an experiment with the experiments repeated on 2–4 days. Similarly, each unique group of human islets was treated as an experiment. […] In the Ca^2+ imaging and granule docking experiment, each cell represents an experiment making sure that cells from multiple donors/animals were used. For the in vivo experiments and the perfused pancreas, each mouse count represents an experiment. For two groupings, a t test was conducted. For multiple comparisons, one-way ANOVA was conducted. All statistical tests were performed using Graphpad Prism (version 9.1.0; graphpad.com). It was ascertained that the data were normally distributed."}, "[4]": {"test_system": "C57Bl6N mice", "assay": "Plasma glucose and glucagon during insulin-induced hypoglycaemia", "format": "in vivo, mouse", "description": "In the experiments involving the use of REMD2.59, mice were injected intraperitoneally with the antagonist (5 mg/kg body weight in PBS) or vehicle 24 h prior to insulin-induced hypoglycaemia. Following the completion of the experiment, the mice were euthanised and the pancreases were resected and weighed."}, "[5]": {"test_system": "isolated mouse pancreatic islets", "assay": "Somatostatin secretion in isolated mouse islets (RIA)", "format": "cell-based", "conditions": "10–10,000 pmol/l, 1 mmol/l glucose", "description": "as §1, with “indicated. Glucagon was determined by ELISA (Mercodia).” for “indicated.”\nas §2"}, "[6]": {"biological_target": "T1, human GCGR expressed in HEK293T cells (Homo sapiens, UniProt P47871)", "T1 construct": "expressed in transfected cells; host or cells: HEK293T (ATCC CRL-3216)", "T1 sequence (P47871 26-477)": "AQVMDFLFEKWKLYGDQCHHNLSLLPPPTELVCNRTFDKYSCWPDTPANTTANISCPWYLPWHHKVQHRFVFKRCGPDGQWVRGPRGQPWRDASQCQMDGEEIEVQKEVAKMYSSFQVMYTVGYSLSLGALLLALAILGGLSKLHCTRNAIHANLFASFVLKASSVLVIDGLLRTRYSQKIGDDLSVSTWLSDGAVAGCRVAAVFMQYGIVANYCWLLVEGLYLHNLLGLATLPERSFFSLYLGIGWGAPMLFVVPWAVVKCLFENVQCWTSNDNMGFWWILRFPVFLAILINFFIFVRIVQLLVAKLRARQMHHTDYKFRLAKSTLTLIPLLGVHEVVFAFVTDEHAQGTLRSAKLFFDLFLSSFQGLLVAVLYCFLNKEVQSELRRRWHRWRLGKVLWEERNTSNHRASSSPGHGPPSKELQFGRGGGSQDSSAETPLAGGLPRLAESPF", "assay": "G protein dissociation (TRUPATH BRET2 biosensor)", "format": "cell-based", "description": "G protein dissociation was measured using the TRUPATH biosensor platform. TRUPATH constructs were obtained from Addgene (kit no. 1000000163 [21]). […] Cells were transfected with equal amounts of GCGR, GαsS-, Gαi1-, Gαi2-, Gαi3-, GαoA-, GαoB- or Gαz-Rluc8, Gβ3, and Gγ1-, Gγ8- or Gγ9-GFP2 (as described in [21]), and pcDNA3.1(‑) using polyethyleneimine (ESM Table 3). After 24 h, cells were seeded at 50,000 cells/well of a 0.01% poly-L-lysine-coated white 96-well plate (Greiner) and grown overnight. Cells were washed with Hanks’ Balanced Salt Solution (Lonza) buffered with 20 mmol/l HEPES (Sigma) and supplemented with 0.1% BSA (Sigma) (wt/vol.). Cells were incubated in 5 μmol/l coelenterazine 400a (Nanolight Technologies) for 5 min. […] The bioluminescence resonance energy transfer 2 (BRET2) ratio was calculated (λ515/λ400) and the time point corresponding to maximal dissociation was used to generate dose–response curves. pEC50 values were calculated using the ‘three parameter log(agonist) vs response’ model in GraphPad Prism9 (version 9.1.0; graphpad.com)."}, "[7]": {"test_system": "mouse alpha cells", "assay": "TIRF imaging of docked secretory granules in mouse alpha cells", "format": "cell-based", "description": "Cells were imaged using total internal reflection fluorescence (TIRF) microscopy (AxioObserver Z1 with a ×100/1.45 objective [Carl Zeiss] and a diode-pumped solid state laser at 491 nm). For these measurements, EC1 was used (ESM Table 2). Images from cells infected with preproglucagon promoter (PPPG)-neuropeptide Y (NPY)-enhanced green fluorescent protein (EGFP) virus were recorded using an electron-multiplying charge-coupled device camera (Photometrics Evolve) using ZEN blue. Single images of cells were acquired to measure the number of docked granules. Incoming and outgoing granules during visiting, docking and undocking were determined from multiple frame movies as described previously. Candidate docking or undocking events were found manually as granules that approached the TIRF field with an axial component and became laterally confined for at least two frames. We defined docking as granules that remained confined for at least 1 min. Visitors were those granules that remained for <1 min after appearing at the plasma membrane. Undocking was defined as slow movement of a previously docked granule away from its docking site. Granule density was calculated using a script that used the built-in ‘find maxima’ function in ImageJ (version 1.53c; http://rsbweb.nih.gov/ij) for spot detection."}, "[8]": {"conditions": "mouse, in vivo, ip", "protocol": "C57Bl6N mice were fasted for 5 h prior to the ITTs. GLP-1(9–36) (100 µg/kg body weight) was injected intraperitoneally before or with insulin as indicated. The relative high dose of GLP-1(9–36) was used because of high basal levels of the peptide. In the control experiments, mice were injected with the saline solvent (154 mmol/l NaCl). […] Total GLP-1 was measured by ELISA (81508; Crystal Chem, Zaandam, the Netherlands; CV<10%)."}}, "note": "Where “and” joins values, the source holds several entries; their conditions need not be identical. Equal entries are not always repeated.", "data": [{"compound": "CC[C@H](C)[C@H](NC(=O)[C@H](Cc1ccccc1)NC(=O)[C@H](CCC(=O)O)NC(=O)[C@H](CCCCN)NC(=O)[C@H](C)NC(=O)[C@H](C)NC(=O)[C@H](CCC(N)=O)NC(=O)CNC(=O)[C@H](CCC(=O)O)NC(=O)[C@H](CC(C)C)NC(=O)[C@H](Cc1ccc(O)cc1)NC(=O)[C@H](CO)NC(=O)[C@H](CO)NC(=O)[C@@H](NC(=O)[C@H](CC(=O)O)NC(=O)[C@H](CO)NC(=O)[C@@H](NC(=O)[C@H](Cc1ccccc1)NC(=O)[C@@H](NC(=O)CNC(=O)[C@@H](N)CCC(=O)O)[C@@H](C)O)[C@@H](C)O)C(C)C)C(=O)N[C@@H](C)C(=O)N[C@@H](Cc1c[nH]c2ccccc12)C(=O)N[C@@H](CC(C)C)C(=O)N[C@H](C(=O)N[C@@H](CCCCN)C(=O)NCC(=O)N[C@@H](CCCNC(=N)N)C(N)=O)C(C)C", "note": "[GLP-1(9–36)]", "values": [{"measurement": "effect on insulin secretion", "setting": "[1]; 30 pmol/l alone, at 1 or 10 mmol/l glucose", "value": "did not increase insulin secretion"}, {"measurement": "effect on insulin secretion", "setting": "[1]; 10–10,000 pmol/l, mouse islets, 1 mmol/l glucose", "value": "No stimulatory effects"}, {"measurement": "effect on PKA activity in the presence of L-168049", "setting": "[2]; 10 and 100 pmol/l, L-168049 100 nmol/l", "value": "without effect"}, {"measurement": "inhibitory effect on PKA activity after PTX pretreatment", "setting": "[2]; PTX pretreatment", "value": "abolished"}, {"measurement": "concentrations at which the decrease in cAMP/PKA activity was maximal", "setting": "[2]; alpha cells in intact mouse islets", "value": "> 10", "unit": "pmol/L"}, {"measurement": "inhibition of glucagon secretion", "setting": "[3]; human islets, 10 pmol/l, 1 mmol/l glucose", "value": "~ 50%"}, {"measurement": "glucagonostatic effect", "setting": "[3]; human islets, 6 mmol/l glucose", "value": "exerted a glucagonostatic effect"}, {"measurement": "glucagonostatic effect", "setting": "[3]; human islets, 20 mmol/l glucose", "value": "not at 20 mmol/l glucose"}, {"measurement": "suppression of glucagon release in islets from donors with type 2 diabetes", "setting": "[3]; islets from donors with type 2 diabetes", "value": "loss"}, {"measurement": "decrease of plasma glucagon AUC during hypoglycaemia", "setting": "[4]; 100 µg/kg i.p. at t=−15 min, AUC over 45 min after insulin, 13 or 14 mice", "value": "30% and ~ 30%"}, {"measurement": "effect on hypoglycaemia-triggered increase in plasma glucagon", "setting": "[4]; 100 µg/kg i.p. at t=−15 min, insulin 0.75 U/kg", "value": "slightly reduced"}, {"measurement": "glucagonostatic effect when administered simultaneously with insulin", "setting": "[4]; co-injected with insulin 0.75 U/kg, p=0.53", "value": "No glucagonostatic effect"}, {"measurement": "glucagonostatic effect in the presence of REMD2.59", "setting": "[4]; mice pretreated with REMD2.59, GLP-1(9–36) 100 µg/kg", "value": "no glucagonostatic effect"}, {"measurement": "effect on basal plasma glucagon", "setting": "[4]; normoglycaemic conditions, prior to insulin injection, 100 µg/kg i.p.", "value": "not affected"}, {"measurement": "effect on somatostatin secretion", "setting": "[5]", "value": "No stimulatory effects"}, {"measurement": "efficacy of GoA dissociation relative to glucagon", "setting": "[6]; GCGR, GoA, HEK293T", "value": "~ 10%"}, {"measurement": "EC50", "setting": "[6]; Gα i2, mean ± S.E.M.", "value": 501, "unit": "nM"}, {"measurement": "pEC50", "setting": "[6]; Gα oA, mean ± S.E.M.", "value": "7.55±-0.52"}, {"measurement": "time at which reduction of docked granules was maximal", "setting": "[7]; 10 pmol/l", "value": 10, "unit": "min"}, {"measurement": "reduction of the number of docked granules", "setting": "[7]; 10 pmol/l, 1 mmol/l glucose, mouse alpha cells", "value": 40, "unit": "%"}, {"measurement": "how granule density was reduced (docking, undocking, arrival)", "setting": "[7]; 10 pmol/l, during 15 min", "value": "inhibiting granule docking and stimulating granule undocking, while not affecting the rate of arrival"}, {"measurement": "capacity to reduce docked granules in the presence of L-168049", "setting": "[7]; L-168049 100 nmol/l", "value": "prevented"}, {"measurement": "capacity to reduce docked granules after PTX pretreatment", "setting": "[7]; PTX 100 ng/ml for 16 h", "value": "prevented"}, {"measurement": "capacity to reduce docked granules in the presence of exendin(9–39)", "setting": "[7]; exendin(9–39) 100 nmol/l, 15 min after addition", "value": "resistant"}, {"measurement": "effect on granule docking in the presence of ω-agatoxin", "setting": "[7]; ω-agatoxin 200 nmol/l", "value": "no additive effect"}, {"measurement": "time for which plasma GLP-1 remained at >100 pmol/l", "setting": "[8]", "value": "> 45", "unit": "min"}]}]}
